Measurements as given in patent US20240415914A1, “Water Dispersible Cannabinoid Compositions” (priority 2021, published 2024).
Like-named read-outs stand apart in the source and are kept apart here.

What was measured:
[1] = type: physicochemical; conditions: stored at room temperature (21-25° C.)
Experimental: At each time period, 0.05 g of powder was dissolved in 10 ml-15 of ethanol, diluted to fall within the analytical range, and injected into the LCMSMS for analysis.

[2] = Stability of cannabinoid and Vitamin E components of Beverage 2 (AB Red) stored at 8° C. and 21-25° C., LCMSMS over 570 days
Experimental: The LCMSMS was calibrated for 0-50 ng/ml cannabinoids with the same resin material used in the preparation of the concentrates. At each time period, 100 μml of beverage was diluted with 10 ml of methanol and injected into the LCMSMS for analysis.

Compound: CCCCCc1cc(O)c2c(c1)OC(C)(C)c1ccc(C)cc1-2 [CBN, cannabinol]
- Stability in Powder Concentrate (content by LCMSMS) ([1]; day 0): 0.480 mg/g powder
- Stability in Powder Concentrate (content by LCMSMS) ([1]; day 1): 0.471 mg/g powder
- Stability in Powder Concentrate (content by LCMSMS) ([1]; day 2): 0.488 mg/g powder
- Stability in Powder Concentrate (content by LCMSMS) ([1]; day 3): 0.474 mg/g powder
- Stability in Powder Concentrate (content by LCMSMS) ([1]; day 5): 0.491 mg/g powder
- Stability in Powder Concentrate (content by LCMSMS) ([1]; day 8): 0.469 mg/g powder
- Stability in Powder Concentrate (content by LCMSMS) ([1]; day 9): 0.466 mg/g powder
- Stability in Powder Concentrate (content by LCMSMS) ([1]; day 10): 0.499 mg/g powder
- Stability in Powder Concentrate (content by LCMSMS) ([1]; day 11): 0.494 mg/g powder
- Stability in Powder Concentrate (content by LCMSMS) ([1]; day 12): 0.496 mg/g powder
- Stability in Powder Concentrate (content by LCMSMS) ([1]; day 15): 0.472 mg/g powder
- Stability in Powder Concentrate (content by LCMSMS) ([1]; day 16): 0.483 mg/g powder
- Stability in Powder Concentrate (content by LCMSMS) ([1]; day 17): 0.465 mg/g powder
- Stability in Powder Concentrate (content by LCMSMS) ([1]; day 18): 0.470 mg/g powder
- Stability in Powder Concentrate (content by LCMSMS) ([1]; day 19): 0.490 mg/g powder
- Stability in Powder Concentrate (content by LCMSMS) ([1]; day 22): 0.486 mg/g powder
- Stability in Powder Concentrate (content by LCMSMS) ([1]; day 23): 0.469 mg/g powder
- Stability in Powder Concentrate (content by LCMSMS) ([1]; day 24): 0.465 mg/g powder
- Stability in Powder Concentrate (content by LCMSMS) ([1]; day 25): 0.486 mg/g powder
- Stability in Powder Concentrate (content by LCMSMS) ([1]; day 26): 0.486 mg/g powder
- Stability in Powder Concentrate (content by LCMSMS) ([1]; day 29): 0.484 mg/g powder
- Stability in Powder Concentrate (content by LCMSMS) ([1]; day 30): 0.476 mg/g powder
- Stability in Powder Concentrate (content by LCMSMS) ([1]; day 60): 0.489 mg/g powder
- Stability in Powder Concentrate (content by LCMSMS) ([1]; day 90): 0.483 mg/g powder
- Stability in Powder Concentrate (content by LCMSMS) ([1]; day 120): 0.498 mg/g powder
- Stability in Powder Concentrate (content by LCMSMS) ([1]; day 150): 0.500 mg/g powder
- Stability in Powder Concentrate (content by LCMSMS) ([1]; day 180): 0.464 mg/g powder
- Stability in Powder Concentrate (content by LCMSMS) ([1]; day 210): 0.501 mg/g powder
- Stability in Powder Concentrate (content by LCMSMS) ([1]; day 240): 0.467 mg/g powder
- Stability in Powder Concentrate (content by LCMSMS) ([1]; day 270): 0.464 mg/g powder
- Stability in Powder Concentrate (content by LCMSMS) ([1]; day 300): 0.469 mg/g powder
- Stability in Powder Concentrate (content by LCMSMS) ([1]; day 330): 0.502 mg/g powder
- Stability in Powder Concentrate (content by LCMSMS) ([1]; day 360): 0.499 mg/g powder
- Stability in Powder Concentrate (content by LCMSMS) ([1]; day 390): 0.479 mg/g powder
- Stability in Powder Concentrate (content by LCMSMS) ([1]; day 420): 0.481 mg/g powder
- Stability in Powder Concentrate (content by LCMSMS) ([1]; day 450): 0.480 mg/g powder
- Stability in Powder Concentrate (content by LCMSMS) ([1]; day 480): 0.485 mg/g powder
- Stability in Powder Concentrate (content by LCMSMS) ([1]; day 510): 0.499 mg/g powder
- Stability in Powder Concentrate (content by LCMSMS) ([1]; day 540): 0.492 mg/g powder
- Stability in Powder Concentrate (content by LCMSMS) ([1]; day 570): 0.471 mg/g powder
- Stability of Cannabinoids in AB Red ([2]; 8° C., 0 days): 2.81 µg/mL
- Stability of Cannabinoids in AB Red ([2]; 8° C., 1 days): 2.82 µg/mL
- Stability of Cannabinoids in AB Red ([2]; 8° C., 2 days): 2.74 µg/mL
- Stability of Cannabinoids in AB Red ([2]; 8° C., 3 days): 2.83 µg/mL
- Stability of Cannabinoids in AB Red ([2]; 8° C., 5 days): 2.78 µg/mL
- Stability of Cannabinoids in AB Red ([2]; 8° C., 8 days): 2.80 µg/mL
- Stability of Cannabinoids in AB Red ([2]; 8° C., 9 days): 2.74 µg/mL
- Stability of Cannabinoids in AB Red ([2]; 8° C., 10 days): 2.79 µg/mL
- Stability of Cannabinoids in AB Red ([2]; 8° C., 11 days): 2.73 µg/mL
- Stability of Cannabinoids in AB Red ([2]; 8° C., 12 days): 2.76 µg/mL
- Stability of Cannabinoids in AB Red ([2]; 8° C., 15 days): 2.77 µg/mL
- Stability of Cannabinoids in AB Red ([2]; 8° C., 16 days): 2.83 µg/mL
- Stability of Cannabinoids in AB Red ([2]; 8° C., 17 days): 2.80 µg/mL
- Stability of Cannabinoids in AB Red ([2]; 8° C., 18 days): 2.78 µg/mL
- Stability of Cannabinoids in AB Red ([2]; 8° C., 19 days): 2.78 µg/mL
- Stability of Cannabinoids in AB Red ([2]; 8° C., 22 days): 2.73 µg/mL
- Stability of Cannabinoids in AB Red ([2]; 8° C., 23 days): 2.79 µg/mL
- Stability of Cannabinoids in AB Red ([2]; 8° C., 24 days): 2.76 µg/mL
- Stability of Cannabinoids in AB Red ([2]; 8° C., 25 days): 2.83 µg/mL
- Stability of Cannabinoids in AB Red ([2]; 8° C., 26 days): 2.79 µg/mL
- Stability of Cannabinoids in AB Red ([2]; 8° C., 29 days): 2.77 µg/mL
- Stability of Cannabinoids in AB Red ([2]; 8° C., 30 days): 2.77 µg/mL
- Stability of Cannabinoids in AB Red ([2]; 8° C., 60 days): 2.73 µg/mL
- Stability of Cannabinoids in AB Red ([2]; 8° C., 90 days): 2.80 µg/mL
- Stability of Cannabinoids in AB Red ([2]; 8° C., 120 days): 2.69 µg/mL
- Stability of Cannabinoids in AB Red ([2]; 8° C., 150 days): 2.69 µg/mL
- Stability of Cannabinoids in AB Red ([2]; 8° C., 180 days): 2.74 µg/mL
- Stability of Cannabinoids in AB Red ([2]; 8° C., 210 days): 2.69 µg/mL
- Stability of Cannabinoids in AB Red ([2]; 8° C., 240 days): 2.74 µg/mL
- Stability of Cannabinoids in AB Red ([2]; 8° C., 270 days): 2.76 µg/mL
- Stability of Cannabinoids in AB Red ([2]; 8° C., 300 days): 2.75 µg/mL
- Stability of Cannabinoids in AB Red ([2]; 8° C., 330 days): 2.71 µg/mL
- Stability of Cannabinoids in AB Red ([2]; 8° C., 390 days): 2.72 µg/mL
- Stability of Cannabinoids in AB Red ([2]; 8° C., 420 days): 2.69 µg/mL
- Stability of Cannabinoids in AB Red ([2]; 8° C., 450 days): 2.71 µg/mL
- Stability of Cannabinoids in AB Red ([2]; 8° C., 480 days): 2.66 µg/mL
- Stability of Cannabinoids in AB Red ([2]; 8° C., 510 days): 2.62 µg/mL
- Stability of Cannabinoids in AB Red ([2]; 8° C., 540 days): 2.60 µg/mL
- Stability of Cannabinoids in AB Red ([2]; 8° C., 570 days): 2.58 µg/mL
- Stability of Cannabinoids in AB Red ([2]; 21-25° C., 0 days): 2.81 µg/mL
- Stability of Cannabinoids in AB Red ([2]; 21-25° C., 1 days): 2.73 µg/mL
- Stability of Cannabinoids in AB Red ([2]; 21-25° C., 2 days): 2.83 µg/mL
- Stability of Cannabinoids in AB Red ([2]; 21-25° C., 3 days): 2.78 µg/mL
- Stability of Cannabinoids in AB Red ([2]; 21-25° C., 5 days): 2.71 µg/mL
- Stability of Cannabinoids in AB Red ([2]; 21-25° C., 8 days): 2.74 µg/mL
- Stability of Cannabinoids in AB Red ([2]; 21-25° C., 9 days): 2.72 µg/mL
- Stability of Cannabinoids in AB Red ([2]; 21-25° C., 10 days): 2.73 µg/mL
- Stability of Cannabinoids in AB Red ([2]; 21-25° C., 11 days): 2.83 µg/mL
- Stability of Cannabinoids in AB Red ([2]; 21-25° C., 12 days): 2.70 µg/mL
- Stability of Cannabinoids in AB Red ([2]; 21-25° C., 15 days): 2.77 µg/mL
- Stability of Cannabinoids in AB Red ([2]; 21-25° C., 16 days): 2.81 µg/mL
- Stability of Cannabinoids in AB Red ([2]; 21-25° C., 17 days): 2.74 µg/mL
- Stability of Cannabinoids in AB Red ([2]; 21-25° C., 18 days): 2.80 µg/mL
- Stability of Cannabinoids in AB Red ([2]; 21-25° C., 19 days): 2.70 µg/mL
- Stability of Cannabinoids in AB Red ([2]; 21-25° C., 22 days): 2.70 µg/mL
- Stability of Cannabinoids in AB Red ([2]; 21-25° C., 23 days): 2.82 µg/mL
- Stability of Cannabinoids in AB Red ([2]; 21-25° C., 24 days): 2.78 µg/mL
- Stability of Cannabinoids in AB Red ([2]; 21-25° C., 25 days): 2.84 µg/mL
- Stability of Cannabinoids in AB Red ([2]; 21-25° C., 26 days): 2.70 µg/mL
- Stability of Cannabinoids in AB Red ([2]; 21-25° C., 29 days): 2.78 µg/mL
- Stability of Cannabinoids in AB Red ([2]; 21-25° C., 30 days): 2.77 µg/mL
- Stability of Cannabinoids in AB Red ([2]; 21-25° C., 60 days): 2.78 µg/mL
- Stability of Cannabinoids in AB Red ([2]; 21-25° C., 90 days): 2.75 µg/mL
- Stability of Cannabinoids in AB Red ([2]; 21-25° C., 120 days): 2.77 µg/mL
- Stability of Cannabinoids in AB Red ([2]; 21-25° C., 150 days): 2.75 µg/mL
- Stability of Cannabinoids in AB Red ([2]; 21-25° C., 180 days): 2.70 µg/mL
- Stability of Cannabinoids in AB Red ([2]; 21-25° C., 210 days): 2.70 µg/mL
- Stability of Cannabinoids in AB Red ([2]; 21-25° C., 240 days): 2.73 µg/mL
- Stability of Cannabinoids in AB Red ([2]; 21-25° C., 270 days): 2.73 µg/mL
- Stability of Cannabinoids in AB Red ([2]; 21-25° C., 300 days): 2.70 µg/mL
- Stability of Cannabinoids in AB Red ([2]; 21-25° C., 330 days): 2.75 µg/mL
- Stability of Cannabinoids in AB Red ([2]; 21-25° C., 390 days): 2.65 µg/mL
- Stability of Cannabinoids in AB Red ([2]; 21-25° C., 420 days): 2.64 µg/mL
- Stability of Cannabinoids in AB Red ([2]; 21-25° C., 450 days): 2.68 µg/mL
- Stability of Cannabinoids in AB Red ([2]; 21-25° C., 480 days): 2.58 µg/mL
- Stability of Cannabinoids in AB Red ([2]; 21-25° C., 510 days): 2.66 µg/mL
- Stability of Cannabinoids in AB Red ([2]; 21-25° C., 540 days): 2.65 µg/mL
- Stability of Cannabinoids in AB Red ([2]; 21-25° C., 570 days): 2.58 µg/mL
